# Earlier results in US10806826B2, “Bone graft substitute containing a temporary contrast agent and a method of generating such and a method of use thereof” (BACTERIN INTERNATIONAL, INC., priority 2013, dated 2020).
# Read-outs that look alike come from different tables or passages of the source.
# Columns and labels:
# [1] = intravenous
# [2] = oral, dosage 2-12 mL/kg
# [3] = intravascular
structure (smiles),measurement,setting,value
FC(F)(F)C(F)(F)C(F)(F)N(C(F)(F)C(F)(F)C(F)(F)F)C(F)(F)C(F)(F)C(F)(F)F [Perfluorotripropylamine],Clearance/Half-life (t1/2),[1],63 days
FC1(F)C(F)(F)C(F)(F)C2(F)C(F)(F)C(F)(F)C(F)(F)C(F)(F)C2(F)C1(F)F (stereo not shown) [Perfluorodecalin],Clearance/Half-life (t1/2),[1],6 days
"FC(F)(F)C(F)(F)C(F)(F)C(F)(F)C(F)(F)C(F)(F)C(F)(F)C(F)(F)Br [Perfluorooctyl bromide, perfluorooctyl bromide]",Clearance: excreted within 24 hours,[2],>95% excreted
same,Clearance/Half-life (t1/2),[3]; dosage 1.2 g/kg,9.4 h
same,Clearance/Half-life (t1/2),[3]; dosage 1.8 g/kg,t1/2 = 6.1 hours
CC(=O)N(CC(O)CO)c1c(I)c(C(=O)NCC(O)CO)c(I)c(C(=O)NCC(O)CO)c1I (stereo not shown) [Iohexol],Clearance/Half-life (t1/2),[1]; dosage varies by imaging needs,t1/2 = 30-60 minutes
same,Clearance: excreted within 24 hours,[3]; dosage 500-1500 mgl/kg,~90% excreted
